Source: ChEMBL document CHEMBL4622916, “Synthesis of tetracyclic oxindoles and evaluation of their α-glucosidase inhibitory and glucose consumption-promoting activity” (Bioorg Med Chem Lett, 2020)
Calls of active or inactive are those of the source. The calls are words filed in the database; no cut-off is given here.

Biological target: not listed separately
Test: Inhibition of alpha-glucosidase (unknown origin)
Parameters: species or system Homo sapiens

Structure (SMILES) | IC50 [µM]
O=C(/C=C/c1ccc(Cl)cc1Cl)[C@@H]1[C@@H](c2ccc(Cl)cc2Cl)[C@@H]2CSCN2C12C(=O)Nc1ccccc12 (stereo not given in full) | 7.4
COC(=O)/C=C/c1ccc2c(c1)C1(C(=O)N2Cc2ccc(OC)cc2)[C@H](C(=O)/C=C/c2ccc(Cl)cc2Cl)[C@@H](c2ccc(Cl)cc2Cl)[C@@H]2CSCN21 (stereo not given in full) | 4.49
O=C(/C=C/c1ccc(Cl)cc1)[C@@H]1[C@@H](c2ccc(Cl)cc2)[C@@H]2CSCN2C12C(=O)Nc1ccccc12 (stereo not given in full) | 7.49
COc1ccc(/C=C/C(=O)[C@@H]2[C@@H](c3ccc(OC)c(OC)c3)[C@@H]3CSCN3C23C(=O)Nc2ccccc23)cc1OC (stereo not given in full) | > 50
O=C(/C=C/c1ccccc1)[C@@H]1[C@@H](c2ccccc2)[C@@H]2CSCN2C12C(=O)Nc1ccccc12 (stereo not given in full) | 16.1
O=C(/C=C/c1ccccc1Cl)[C@@H]1[C@@H](c2ccccc2Cl)[C@@H]2CSCN2C12C(=O)Nc1ccccc12 (stereo not given in full) | 9.8
O=C(/C=C/c1ccccc1Br)[C@@H]1[C@@H](c2ccccc2Br)[C@@H]2CSCN2C12C(=O)Nc1ccccc12 (stereo not given in full) | 4.47
COC(=O)/C=C/c1ccc2c(c1)C1(C(=O)N2Cc2ccc(OC)cc2)[C@H](C(=O)/C=C/c2ccc(Cl)cc2)[C@@H](c2ccc(Cl)cc2)[C@@H]2CSCN21 (stereo not given in full) | 4.73
CN(C)c1ccc(/C=C/C(=O)[C@@H]2[C@@H](c3ccc(N(C)C)cc3)[C@@H]3CSCN3C23C(=O)Nc2ccccc23)cc1 (stereo not given in full) | 4.81
COC(=O)/C=C/c1ccc2c(c1)C1(C(=O)N2Cc2ccc(OC)cc2)[C@H](C(=O)/C=C/c2ccc(Br)cc2)[C@@H](c2ccc(Br)cc2)[C@@H]2CSCN21 (stereo not given in full) | 8.44
COc1ccc(CN2C(=O)C3(c4cc(Br)ccc42)[C@H](C(=O)/C=C/c2ccc(N(C)C)cc2)[C@@H](c2ccc(N(C)C)cc2)[C@@H]2CSCN23)cc1 (stereo not given in full) | 3.64
O=C(/C=C/c1ccco1)[C@@H]1[C@@H](c2ccco2)[C@@H]2CSCN2C12C(=O)Nc1ccccc12 (stereo not given in full) | > 50
COC(=O)/C=C/c1ccc2c(c1)C1(C(=O)N2Cc2ccc(OC)cc2)[C@H](C(=O)/C=C/c2ccccc2Br)[C@@H](c2ccccc2Br)[C@@H]2CSCN21 (stereo not given in full) | 4.68
Cc1ccc(/C=C/C(=O)[C@@H]2[C@@H](c3ccc(C)cc3)[C@@H]3CSCN3C23C(=O)Nc2ccccc23)cc1 (stereo not given in full) | 18.9
COc1ccc(CN2C(=O)C3(c4cc(Br)ccc42)[C@H](C(=O)/C=C/c2ccc(Cl)cc2)[C@@H](c2ccc(Cl)cc2)[C@@H]2CSCN23)cc1 (stereo not given in full) | 3.9
COC(=O)/C=C/c1ccc2c(c1)C1(C(=O)N2Cc2ccc(OC)cc2)[C@H](C(=O)/C=C/c2ccccc2)[C@@H](c2ccccc2)[C@@H]2CSCN21 (stereo not given in full) | 8.33
COc1ccc(CN2C(=O)C3(c4cc(Br)ccc42)[C@H](C(=O)/C=C/c2ccc(Cl)cc2Cl)[C@@H](c2ccc(Cl)cc2Cl)[C@@H]2CSCN23)cc1 (stereo not given in full) | 14.1
O=C(/C=C/c1ccc(Cl)cc1)[C@@H]1[C@@H](c2ccc(Cl)cc2)[C@@H]2CSCN2C12C(=O)Nc1ccc(Br)cc12 (stereo not given in full) | 4.9

Next, values leading:

IC50 [µM] | Structure (SMILES)
4.47 | COC(=O)/C=C/c1ccc2c(c1)C1(C(=O)N2Cc2ccc(OC)cc2)[C@H](C(=O)/C=C/c2ccc(F)cc2)[C@@H](c2ccc(F)cc2)[C@@H]2CSCN21 (stereo not given in full)
7.43 | CCN(CC)c1ccc(/C=C/C(=O)[C@@H]2[C@@H](c3ccc(N(CC)CC)cc3)[C@@H]3CSCN3C23C(=O)N(Cc2ccc(OC)cc2)c2ccc(/C=C/C(=O)OC)cc23)cc1 (stereo not given in full)
3.81 | COC(=O)/C=C/c1ccc2c(c1)C1(C(=O)N2Cc2ccc(OC)cc2)[C@H](C(=O)/C=C/c2ccc(OC)cc2)[C@@H](c2ccc(OC)cc2)[C@@H]2CSCN21 (stereo not given in full)
50.3 | C[C@H]1O[C@H](O[C@H]2[C@H](O)[C@@H](O)[C@@H](O[C@H]3[C@H](O)[C@@H](O)C(O)O[C@@H]3CO)O[C@@H]2CO)[C@H](O)[C@@H](O)[C@@H]1N[C@H]1C=C(CO)[C@@H](O)[C@H](O)[C@H]1O (stereo not given in full) [ACARBOSE]
4.14 | COC(=O)/C=C/c1ccc2c(c1)C1(C(=O)N2Cc2ccc(OC)cc2)[C@H](C(=O)/C=C/c2ccc(-c3ccccc3)cc2)[C@@H](c2ccc(-c3ccccc3)cc2)[C@@H]2CSCN21 (stereo not given in full)
39.9 | COc1ccc(CN2C(=O)C(=O)c3cc(Br)ccc32)cc1
4.09 | COc1ccc(CN2C(=O)C3(c4cc(Br)ccc42)[C@H](C(=O)/C=C/c2ccccc2Br)[C@@H](c2ccccc2Br)[C@@H]2CSCN23)cc1 (stereo not given in full)
9.47 | COC(=O)/C=C/c1ccc2c(c1)C1(C(=O)N2Cc2ccc(OC)cc2)[C@H](C(=O)/C=C/c2ccc(N(C)C)cc2)[C@@H](c2ccc(N(C)C)cc2)[C@@H]2CSCN21 (stereo not given in full)

Species: Homo sapiens
Test: Reversible competitive inhibition of alpha-glucosidase (unknown origin) by Lineweaver-Burk plot analysis

inhibition | Structure (SMILES)
Active | COc1ccc(CN2C(=O)C3(c4cc(Br)ccc42)[C@H](C(=O)/C=C/c2ccc(N(C)C)cc2)[C@@H](c2ccc(N(C)C)cc2)[C@@H]2CSCN23)cc1 (stereo not given in full)

System: HepG2
Test: Increase in glucose consumption in human HepG2 cells at 1 to 5 uM
Type: functional, cell-based

Structure (SMILES) | Activity
COc1ccc(CN2C(=O)C3(c4cc(Br)ccc42)[C@H](C(=O)/C=C/c2ccc(N(C)C)cc2)[C@@H](c2ccc(N(C)C)cc2)[C@@H]2CSCN23)cc1 (stereo not given in full) | Active

System: HepG2
Test: Cytotoxicity against human HepG2 cells
Type: cell-based

Structure (SMILES) | Activity
COc1ccc(CN2C(=O)C3(c4cc(Br)ccc42)[C@H](C(=O)/C=C/c2ccc(N(C)C)cc2)[C@@H](c2ccc(N(C)C)cc2)[C@@H]2CSCN23)cc1 (stereo not given in full) | Non-Toxic

Species: Homo sapiens
Test: Potency index, ratio of IC50 of acarbose to IC50 of compound for inhibition of alpha-glucosidase (unknown origin)

Ratio IC50 | Structure (SMILES)
14 | COc1ccc(CN2C(=O)C3(c4cc(Br)ccc42)[C@H](C(=O)/C=C/c2ccc(N(C)C)cc2)[C@@H](c2ccc(N(C)C)cc2)[C@@H]2CSCN23)cc1 (stereo not given in full)
